Measurements reported in article PMC7588194 (Virulence, 2020).

Test system: P. aeruginosa (ATCC 27853)
Test: Radial diffusion assay
Assay type: cell-based
Settings: for enhancement of antimicrobial activity among derivatives D1-D7 / concentration achieving similar inhibition zones: Figure 6C
Protocol: To identify library fractions and purified peptides with antibacterial activity a radial diffusion assay was carried out. Bacteria were cultured in liquid THY broth (Todd-Hewitt Broth [Oxoid, CM0189B] supplemented with 0.5% yeast extract [BD, Miami, USA, 212,750]) at 37°C overnight in a 5% CO2 atmosphere, pelleted by centrifugation and washed in 10 mM sodium phosphate buffer. Following resuspension in 10 mM sodium phosphate buffer optical density was determined spectrophotometrically at 600 nm (OD600nm). Bacterial density was adjusted to seed 2 × 10^7 bacteria into a petri dish in 1% agarose dissolved in 10 mM sodium phosphate buffer. Plates were allowed to cool for 30 min at 4°C before several 2–3 mm holes were placed into the 1% agarose. Freeze-dried fractions of the BAL library pool were reconstituted in 200 µl of ddH2O with 10 µl being used for the initial screen. Alternatively, peptides adjusted to the desired concentration in 10 µl of ddH2O were filled into the agar-holes. Following incubation at 37°C in ambient air for 3 h plates were overlaid with 10 ml of a 1% agarose solution containing 3% tryptic soy broth (TSB) dissolved in 10 mM phosphate buffer. Inhibition zones in cm were determined following 16–18 h incubation time at 37°C in a 5% CO2 atmosphere.

Row | Sequence | enhancement of antimicrobial activity among derivatives D1-D7 | times the amount needed compared to D7 at 25 µg/ml for similar inhibition zones | concentration achieving similar inhibition zones [µg/mL]
1 | GVNHVILSQIKIVKW [B2M D6] | most convincing enhancement of antimicrobial activity | – | –
2 | RVNHVTLSQPKIVKW [B2M 101-115] | – | 2–4 | 50 to 100
3 | GVNHVKLSQIKIVKW [B2M D7] | most convincing enhancement of antimicrobial activity | – | 25
